Experimental findings from patent US20250163104A1, “MACROCYCLIC IMMUNOMODULATORS” (priority 2021, published 2025) are described below.

The experiment has as its target T1, human PD-1 / PD-L1-Ig binding on Jurkat cell line over-expressing human PD-1 (Jurkat-PD-1) (Homo sapiens, UniProt Q15116).
T1 construct: expressed in transfected cells; host or cells: Jurkat
Briefly: Jurkat-PD-1 Cell Binding High-Content Screening Assay (CBA). Type of experiment: cell-based. The settings on record: Jurkat-PD-1 cells, PE-labeled PD-L1-Ig 20 nM final; read-out: Jurkat HPD1_PDL1 IC50. In short, it runs like this: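 Read-out: high-content imaging of PE-tagged PD-L1-Ig bound to Jurkat cells overexpressing human PD-1, after fixation with 4% paraformaldehyde and Hoechst 33342 nuclear staining. Ligand was used at 20 nM final for 1 hour, after a 2 h compound exposure at 37° C in serum-containing DMEM.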

Where a SMILES comes first, the peptide text is derived from it. Bridges are numbered along the chain shown (N, C = ends). [ ]: non-standard residue; d: D form. The star is where a group is joined. ξ: configuration not given here. Phe(4-COOH) = N[C@@H](Cc1ccc(C(=O)O)cc1)C(=O)O; Bip = N[C@@H](Cc1ccc(-c2ccccc2)cc1)C(=O)O; Phe(3-Me) = Cc1cccc(C[C@H](N)C(=O)O)c1; Benzoyl(4-F) = O=C(c1ccc(F)cc1)*; 3Pal = N[C@@H](Cc1cccnc1)C(=O)O; 4Pal = N[C@@H](Cc1ccncc1)C(=O)O; Cha = N[C@@H](CC1CCCCC1)C(=O)O; Cit = NC(=O)NCCC[C@H](N)C(=O)O; Ile(3ξ) = CCC(C)[C@H](N)C(=O)O; Thr(3ξ) = CC(O)[C@H](N)C(=O)O; Carboxymethyl = O=C(O)C*; Nle = CCCC[C@H](N)C(=O)O; Orn = NCCC[C@H](N)C(=O)O; Pra = C#CC[C@H](N)C(=O)O; Dab = NCC[C@H](N)C(=O)O; Dap = NC[C@H](N)C(=O)O; Propargyl = C#CC*

T1 sequence (Q15116 25-288): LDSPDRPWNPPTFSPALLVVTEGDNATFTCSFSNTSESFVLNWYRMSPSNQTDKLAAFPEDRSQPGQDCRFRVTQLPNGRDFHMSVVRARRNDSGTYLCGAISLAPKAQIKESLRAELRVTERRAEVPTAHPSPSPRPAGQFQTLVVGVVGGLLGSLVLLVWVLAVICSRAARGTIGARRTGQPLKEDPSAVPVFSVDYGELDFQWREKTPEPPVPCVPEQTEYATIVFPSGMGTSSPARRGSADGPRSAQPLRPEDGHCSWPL

On to `Cc1cccc(C[C@@H]2NC(=O)[C@H](CC(=O)O)NC(=O)[C@H](Cc3ccc(C(=O)O)cc3)NC(=O)[C@H](Cc3ccncc3)NC(=O)CSC[C@@H](C(=O)N[C@@H](CC(N)=O)C(N)=O)NC(=O)[C@H](CO)NC(=O)[C@H](C(C)C)NC(=O)[C@H](CC3CCCCC3)NC(=O)[C@H](CCN)NC(=O)[C@@H](CC(C)C)NC(=O)[C@H](CCCN)NC(=O)[C@H](Cc3ccc(OCC(=O)O)cc3)NC(=O)[C@H](Cc3ccc(-c4ccccc4)cc3)NC(=O)[C@H](Cc3ccc(OCC(=O)O)cc3)NC2=O)c1` [Compound 2303] ({CH2CO}-[4Pal][Phe(4-COOH)]D[Phe(3-Me)]Y(Carboxymethyl)[Bip]Y(Carboxymethyl)[Orn][dL][Dab][Cha]VSCN-NH2; thioether N-14), for which the half-maximal inhibitory concentration (IC50) is 5.3 nM.
Next, `CC(C)C[C@@H]1NC(=O)[C@H](CC(N)=O)NC(=O)[C@@H](CC(C)C)NC(=O)[C@H](CN)NC(=O)[C@H](C(C)C)NC(=O)[C@H](Cc2ccc(-c3ccccc3)cc2)NC(=O)[C@H](C(C)C)NC(=O)[C@H](Cc2c[nH]c3ccccc23)NC(=O)[C@H](CC(=O)O)NC(=O)[C@H](Cc2ccc(OCC(=O)O)cc2)NC(=O)[C@H](CN)NC(=O)CSC[C@@H](C(=O)NCC(N)=O)NC(=O)[C@H](CO)NC(=O)[C@H](C(C)C)NC1=O` [Compound 1289] ({CH2CO}-[Dap]Y(Carboxymethyl)DWV[Bip]V[Dap][dL]NLVSCG-NH2; thioether N-14): 11 nM; `CC(C)[C@@H]1NC(=O)[C@H](Cc2c[nH]c3ccccc23)NC(=O)[C@H](CC(=O)O)NC(=O)[C@H](Cc2ccncc2)NC(=O)[C@H](Cc2ccc(OCC(=O)O)cc2)NC(=O)CSC[C@@H](C(=O)N[C@@H](C)C(N)=O)NC(=O)[C@H]([C@@H](C)O)NC(=O)[C@H](C(C)C)NC(=O)[C@H](CC2CCCCC2)NC(=O)[C@H](CCN)NC(=O)[C@@H](Cc2ccc(O)cc2)NC(=O)[C@H](CCCN)NC(=O)[C@H](CCC(=O)O)NC(=O)[C@H](Cc2ccc(-c3ccccc3)cc2)NC1=O` [Compound 1447] ({CH2CO}-Y(Carboxymethyl)[4Pal]DWV[Bip]E[Orn][dY][Dab][Cha]VTCA-NH2; thioether N-14): 29.8 nM; `CCCC[C@@H]1NC(=O)[C@H](CCN)NC(=O)[C@@H](CC(C)C)NC(=O)[C@H](CCCN)NC(=O)[C@H]([C@@H](C)CC)NC(=O)[C@H](Cc2ccc(-c3ccccc3)cc2)NC(=O)[C@H](C(C)C)NC(=O)[C@H](Cc2cccc(C)c2)NC(=O)[C@H](CC(=O)O)NC(=O)[C@H](Cc2ccc(OCC(=O)O)cc2)NC(=O)[C@H](Cc2ccncc2)NC(=O)CSC[C@@H](C(=O)N[C@@H](C)C(N)=O)NC(=O)[C@H]([C@@H](C)O)NC(=O)[C@H](C(C)C)NC1=O` [Compound 1197]: 12 nM.
Turning to `Cc1cccc(C[C@@H]2NC(=O)[C@H](CC(=O)O)NC(=O)[C@H](Cc3ccc(OCC(=O)O)cc3)NC(=O)[C@H](CNC(=O)c3ccc(F)cc3)NC(=O)CSC[C@@H](C(N)=O)NC(=O)[C@H]([C@@H](C)O)NC(=O)[C@H](C(C)C)NC(=O)[C@H](CC3CCCCC3)NC(=O)[C@H](CCN)NC(=O)[C@@H](CC(C)C)NC(=O)[C@H](CCCN)NC(=O)[C@H](Cc3ccc(OCC(=O)O)cc3)NC(=O)[C@H](Cc3ccc(-c4ccccc4)cc3)NC(=O)[C@H](Cc3ccc(O)cc3)NC2=O)c1` [Compound 2048] ({CH2CO}-[Dap](Benzoyl(4-F))Y(Carboxymethyl)D[Phe(3-Me)]Y[Bip]Y(Carboxymethyl)[Orn][dL][Dab][Cha]VTC-NH2; thioether N-14), the IC50 worked out at 40.2 nM.
In the case of `CC(=O)NCCCC[C@@H]1NC(=O)CSC[C@@H](C(=O)N[C@@H](CO)C(N)=O)NC(=O)[C@H](C(C)O)NC(=O)[C@H](C(C)C)NC(=O)[C@H](CC2CCCCC2)NC(=O)[C@H](CCN)NC(=O)[C@@H](CC(C)C)NC(=O)[C@H](CCCN)NC(=O)[C@H](CCCNC(N)=O)NC(=O)[C@H](Cc2ccc(-c3ccccc3)cc2)NC(=O)[C@H](C(C)C)NC(=O)[C@H](Cc2cccc(C)c2)NC(=O)[C@H](CC(=O)O)NC(=O)[C@H](Cc2ccc(OCC(=O)O)cc2)NC1=O` (stereo partly drawn) [Compound 2595] ({CH2CO}-K(Ac)Y(Carboxymethyl)D[Phe(3-Me)]V[Bip][Cit][Orn][dL][Dab][Cha]V[Thr(3ξ)]CS-NH2; thioether N-14), the IC50 was 9.9 nM.
`Cc1cccc(C[C@@H]2NC(=O)[C@H](CC(=O)O)NC(=O)[C@H](Cc3ccc(O)cc3)NC(=O)[C@H](CC(N)=O)NC(=O)CSC[C@@H](C(=O)N[C@@H](C)C(N)=O)NC(=O)[C@H]([C@@H](C)O)NC(=O)[C@H](C(C)C)NC(=O)[C@H](CC3CCCCC3)NC(=O)[C@H](CCN)NC(=O)[C@@H](CC(C)C)NC(=O)[C@H](CCCN)NC(=O)[C@H](CCC(=O)O)NC(=O)[C@H](Cc3ccc(-c4ccccc4)cc3)NC(=O)[C@H](C(C)C)NC2=O)c1` [Compound 1420] ({CH2CO}-NYD[Phe(3-Me)]V[Bip]E[Orn][dL][Dab][Cha]VTCA-NH2; thioether N-14): the IC50 was found to be 7.5 nM.
As to `C#CCOc1ccc(C[C@@H]2NC(=O)[C@H](Cc3ccc(-c4ccccc4)cc3)NC(=O)[C@H](Cc3ccc(C(=O)O)cc3)NC(=O)[C@H](Cc3cccc(C)c3)NC(=O)[C@H](CC(=O)O)NC(=O)[C@H](Cc3ccc(C(=O)O)cc3)NC(=O)[C@H](CCCC)NC(=O)CSC[C@@H](C(=O)N[C@@H](CCN)C(N)=O)NC(=O)[C@H](CCC(=O)O)NC(=O)[C@H](C(C)C)NC(=O)[C@H](CC3CCCCC3)NC(=O)[C@H](CCN)NC(=O)[C@@H](CC(C)C)NC(=O)[C@H](CCCN)NC2=O)cc1` [Compound 1835] ({CH2CO}-[Nle][Phe(4-COOH)]D[Phe(3-Me)][Phe(4-COOH)][Bip]Y(Propargyl)[Orn][dL][Dab][Cha]VEC[Dab]-NH2; thioether N-14), the IC50 came out at 6.4 nM.
On to `Cc1cccc(C[C@@H]2NC(=O)[C@H](CC(=O)O)NC(=O)[C@H](Cc3ccc(OCC(=O)O)cc3)NC(=O)[C@H]([C@@H](C)O)NC(=O)CSC[C@@H](C(N)=O)NC(=O)[C@H](CCC(=O)O)NC(=O)[C@H](C(C)C)NC(=O)[C@H](CC3CCCCC3)NC(=O)[C@H](CCN)NC(=O)[C@@H](CC(C)C)NC(=O)[C@H](CCCN)NC(=O)[C@H](Cc3ccc(OCC(=O)O)cc3)NC(=O)[C@H](Cc3ccc(-c4ccccc4)cc3)NC(=O)[C@H](Cc3ccc(OCC(=O)O)cc3)NC2=O)c1` [Compound 1801] ({CH2CO}-TY(Carboxymethyl)D[Phe(3-Me)]Y(Carboxymethyl)[Bip]Y(Carboxymethyl)[Orn][dL][Dab][Cha]VEC-NH2; thioether N-14), for which the IC50 amounted to 84.4 nM.
Next, `CC(C)C[C@@H]1NC(=O)[C@H](CCN)NC(=O)[C@@H](CC(C)C)NC(=O)[C@H](CCCN)NC(=O)[C@H](C(C)C)NC(=O)[C@H](Cc2ccc(-c3ccccc3)cc2)NC(=O)[C@H](C(C)C)NC(=O)[C@H](Cc2c[nH]c3ccccc23)NC(=O)[C@H](CC(=O)O)NC(=O)[C@H](Cc2ccc(C(=O)O)cc2)NC(=O)[C@H](CN)NC(=O)CSC[C@@H](C(=O)N[C@@H](C)C(N)=O)NC(=O)[C@H]([C@@H](C)O)NC(=O)[C@H](C(C)C)NC1=O` [Compound 1046] ({CH2CO}-[Dap][Phe(4-COOH)]DWV[Bip]V[Orn][dL][Dab]LVTCA-NH2; thioether N-14): 14 nM; `CCC(C)[C@@H]1NC(=O)[C@H](Cc2ccc(-c3ccccc3)cc2)NC(=O)[C@H](C(C)C)NC(=O)[C@H](Cc2cccc(C)c2)NC(=O)[C@H](CC(=O)O)NC(=O)[C@H](Cc2cccnc2)NC(=O)[C@H](Cc2ccccc2)NC(=O)CSC[C@@H](C(=O)N[C@@H](C)C(N)=O)NC(=O)[C@H]([C@@H](C)O)NC(=O)[C@H](C(C)C)NC(=O)[C@H](CC2CCCCC2)NC(=O)[C@H](CCN)NC(=O)[C@@H](CC(C)C)NC(=O)[C@H](CCCN)NC1=O` (stereo partly drawn) [Compound 2234] ({CH2CO}-F[3Pal]D[Phe(3-Me)]V[Bip][Ile(3ξ)][Orn][dL][Dab][Cha]VTCA-NH2; thioether N-14): 70.8 nM.
The value for `CC(C)C[C@@H]1NC(=O)[C@H](CCN)NC(=O)[C@@H](CC(C)C)NC(=O)[C@H](CCCCN)NC(=O)[C@H](C(C)C)NC(=O)[C@H](Cc2ccc(-c3ccccc3)cc2)NC(=O)[C@H](C(C)C)NC(=O)[C@H](Cc2c[nH]c3ccccc23)NC(=O)[C@H](CC(=O)O)NC(=O)[C@H](Cc2ccc(O)cc2)NC(=O)[C@H](CC(N)=O)NC(=O)CSC[C@@H](C(=O)N[C@@H](C)C(N)=O)NC(=O)[C@H]([C@@H](C)O)NC(=O)[C@H](C(C)C)NC1=O` [Compound 1025] ({CH2CO}-NYDWV[Bip]VK[dL][Dab]LVTCA-NH2; thioether N-14) was 11 nM.
Next, `CC(C)C[C@H]1NC(=O)[C@H](CCCN)NC(=O)[C@H](C(C)C)NC(=O)[C@H](Cc2ccc(-c3ccccc3)cc2)NC(=O)[C@H](C(C)C)NC(=O)[C@H](Cc2c[nH]c3ccccc23)NC(=O)[C@H](CC(=O)O)NC(=O)[C@H](Cc2ccc(OCC(=O)O)cc2)NC(=O)[C@H](CN)NC(=O)CSC[C@@H](C(=O)N[C@@H](C)C(N)=O)NC(=O)[C@H]([C@@H](C)O)NC(=O)[C@H](C(C)C)NC(=O)[C@H](CC2CCCCC2)NC(=O)[C@H](CCC(N)=O)NC1=O` [Compound 1520] ({CH2CO}-[Dap]Y(Carboxymethyl)DWV[Bip]V[Orn][dL]Q[Cha]VTCA-NH2; thioether N-14): 10.5 nM.
As for `C#CC[C@H](NC(=O)[C@H](CCN)NC(=O)[C@@H]1CSCC(=O)N[C@@H](CCN)C(=O)N[C@@H](Cc2ccc(OCC(=O)O)cc2)C(=O)N[C@@H](CC(=O)O)C(=O)N[C@@H](Cc2cccc(C)c2)C(=O)N[C@@H](Cc2ccc(C(=O)O)cc2)C(=O)N[C@@H](Cc2ccc(-c3ccccc3)cc2)C(=O)N[C@@H](Cc2ccc(C(=O)O)cc2)C(=O)N[C@@H](CCCN)C(=O)N[C@H](CC(C)C)C(=O)N[C@@H](CCN)C(=O)N[C@@H](CC2CCCCC2)C(=O)N[C@@H](C(C)C)C(=O)N[C@@H](CCC(=O)O)C(=O)N1)C(=O)O` [Compound 1823] ({CH2CO}-[Dab]Y(Carboxymethyl)D[Phe(3-Me)][Phe(4-COOH)][Bip][Phe(4-COOH)][Orn][dL][Dab][Cha]VEC[Dab][Pra]-OH; thioether N-14), the IC50 stood at 10.1 nM.

The term IC50 denotes the concentration that inhibits the measured activity by half.
